Experimental data taken from publication PMC6690930, “Characterization and its implication of a novel taste receptor detecting nutrients in the honey bee, Apis mellifera” (Scientific Reports, 2019).
Each block holds one compound with its values, some of them ahead of it.

How the values were obtained:
[1] = tested on: non-transfected HEK 293 cells; assay: Calcium imaging of non-transfected HEK 293 cells (control); assay type: cell-based; conditions: Fig. S6
Procedure: Test chemicals were dissolved in HBSS at various concentrations.

[2] = tested on: sensilla chaetica on the galea; assay: Tip recording from galeal sensilla chaetica of honey bee; assay type: in vivo, Apis mellifera; conditions: for Responses during 1 sec of stimulation: sensilla chaetica on the galea; for Threshold concentration necessary for tip recording: honey bee mouthparts in vivo; for Response of sensilla chaetica on the galea (in words): tip recording
From the text: Tip recording® experiments were amplified and recorded from the left galea of the proboscis in honey bee mouthparts with IDAC4 with Autospikes software (Syntech, Hilversum, The Netherlands). Bees were immobilized by cooling on ice, restrained in a pipette tip, holding head and appendages in place for electrophysiological measurements. Recordings from gustatory sensilla in galea were made from so-called sensilla chaetica[81] at the tip of galea devoid of olfactory sensilla. These sensilla can be easily identified by their external morphology. A grounded reference electrode filled with 1 mM KCl was inserted into the compound eye. L-glutamate and L-aspartate were selected for tip recording testing and are common amino acids in plant pollen. For stimulation, 1 mM KCl with […] concentrations of 100 mM and 1 mM KCl alone were used. Stimuli were applied for approximately 5 s with an inter-stimulus interval of 3 min. […] These sensilla were excluded from the data analysis. The responses of galeal sensilla to all tested solutions were quantified by counting the number of spikes after stimulus onset.

AmGr1 = tested on: AmGr1; parameters: method as in earlier work; conditions: cited from earlier work
AmGr10 [3] = target: T1, AmGr10 (Apis mellifera, UniProt A0A7M6W8K8); assay: Calcium imaging of HEK 293 cells expressing AmGr10; assay type: cell-based; conditions: for Real time calcium imaging response: 50 μm amino acid alone, Videos S1, S2; for Real time calcium imaging response with IMP: 50 μm amino acid with 2 μm of IMP, Videos S3, S4
T1 sequence (A0A7M6W8K8 entry or part of it): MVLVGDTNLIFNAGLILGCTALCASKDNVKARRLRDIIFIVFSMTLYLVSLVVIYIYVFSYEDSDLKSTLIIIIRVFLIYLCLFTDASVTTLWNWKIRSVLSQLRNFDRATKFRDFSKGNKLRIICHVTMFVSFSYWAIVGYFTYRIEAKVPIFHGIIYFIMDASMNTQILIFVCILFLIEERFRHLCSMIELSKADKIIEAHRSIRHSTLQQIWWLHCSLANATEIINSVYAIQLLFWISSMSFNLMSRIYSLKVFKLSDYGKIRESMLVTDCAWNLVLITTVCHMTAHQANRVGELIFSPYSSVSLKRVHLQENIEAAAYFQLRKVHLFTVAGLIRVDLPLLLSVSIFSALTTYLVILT
Procedure: (§1) The expression vector was synthesized by inserting the cDNA of AmGr10 (Apis mellifera Gustatory receptor 10) into the multiple cloning site of the pcDNA3.1 vector using the restriction enzymes EcoRI and NotI (Koscamco, Anyang, Korea). Template pDNA for pcDNA3.1-AmGr10 and primers were then mixed with kit solutions. The total PCR volume and conditions were followed as described previously. 2.5 µg of the vector with AmGr10 was transfected into the HEK 293 cells using Lipofectamine 2000 (Invitrogen, CA, USA). The transfection method was according to the manufacturer’s manual. In brief, the Opti-MEM (Invitrogen, CA, USA) was mixed with Lipofectamine at the rate of 6 μL in 125 μL Opti-MEM. It was incubated for 5 min at room temperature. The plasmid DNA (2.5 μg) also was blended with 125 μL Opti-MEM media. These were combined and incubated for 20 min at room temperature. The solution was applied on the HEK cells. After 24 h, the transfected cells were selected using 200 µg/ml zeocin.
Transfected cell lines were subsequently cultured on dishes suitable for confocal microscopy (SPL, Pocheon, Korea). Before each experiment, the culture medium was removed and washed once in Hansk’s balanced salt solution (assay buffer). Transfected cells were loaded with calcium dye Fluo-4 AM (Molecular probes, USA), 2 μM in assay buffer to the dish, after which the cells were incubated in the dark for 90 min at room temperature. After incubation, 1X HBSS buffer was added to the confocal dish, which was then directly placed in the LSM700 inverted confocal microscope for observation (Zeiss, Oberkochen, Germany). Images were captured with a maximum of 100 frames per two-second interval. Test chemicals were dissolved in HBSS at various concentrations. Calcium influx into the transfected cells upon ligand binding was monitored and analyzed with ZEN software (Zeiss, Oberkochen, Germany). For data analysis, response refers to the number of cells responding in a field of about 300 transfected cells. Cells were counted as responders if the F ratio increased above 0.27 after addition of tastants.

AmGr10 [4] = target: T1, AmGr10; assay: Intracellular calcium assay (Fluo-4) in HEK 293 cells expressing AmGr10; assay type: cell-based; conditions: for Response of HEK 293 cells expressing AmGr10 (in words): 100 mM of amino acid
Procedure: as §1
For calcium signaling assays, HEK 293 cells expressing AmGr10 were cultured for more than 3 days, and the Fluo-4 AM dye mix solution (Molecular probes) was loaded into the cell in 96-well microplate. […] To normalize the response, the changes in the fluorescence ratio were divided by the maximal fluorescence changes induced by each compound.

AmGr10 [5] = target: T1, AmGr10; assay: Two-electrode voltage-clamp recording of Xenopus oocytes expressing AmGr10; assay type: cell-based; conditions: for Response of oocytes injected with AmGr10 cRNA (in words): holding potential -70 mV; for Threshold concentration on Xenopus oocytes expressed AmGr10: in vitro
Procedure: Full-length coding sequences of the AmGr10 cDNA were first cloned into pGEM-T easy vector (Promega, Madison, USA) and then subcloned into the pSDTF vector. In vitro transcription of cRNA was performed by using the mMESSAGE mMACHINE SP6 Kit (Ambion, Austin, TX, USA) according to the manufacturer’s protocol. Plasmids were linearized with EcoR1, and capped cRNA was transcribed using SP6 RNA polymerase. The cRNA was purified, resuspended in nuclease-free water at a concentration of 1 μg/μl, and stored at −80 °C in aliquots. Mature oocytes were freed from the follicle cells by treatment with collagenase A for 1 h at room temperature and incubated for 24 hours in modified Barth’s solution[16]. […] The oocytes were then incubated at 17 °C for 3~5 days in Barth’s solution. The two-electrode voltage-clamp technique was employed to observe tastant-induced currents at a holding potential of −70 mV.

AmGr3 = tested on: AmGr3; parameters: method as in PMID 28403157, PMID 29194737; conditions: cited from earlier work
hT1R1/hT1R3 = conditions: cited from earlier work
human = tested on: human; parameters: method as in PMID 24214976; conditions: at high concentrations; cited from earlier work

SMILES: CNc1ccc2oc(C[C@@H]3OC4(CC[C@@H]3C)O[C@H](C(C)C(=O)c3ccc[nH]3)[C@H](C)C[C@H]4C)nc2c1C(=O)O (stereo partly drawn) [calcium ionophore]
Calcium influx in non-transfected HEK 293 cells [1]: activated

SMILES: Nc1nc2c(ncn2[C@@H]2O[C@H](COP(=O)(O)O)[C@@H](O)[C@H]2O)c(=O)[nH]1 [GMP, Guanosine 5′-monophosphate]
Effect of GMP on responses to non-amino acid stimulus sucrose ([2]; 2 mM GMP): no significant effect
Effect of GMP on nerve-firing rates to amino acids ([2]; 2 mM GMP, 50 mM amino acids): significantly enhanced

SMILES: OC[C@H]1O[C@H](O[C@H]2O[C@H](CO)[C@@H](O)[C@H](O)[C@H]2O)[C@H](O)[C@@H](O)[C@@H]1O [trehalose]
Response of AmGr1 (AmGr1): responded

SMILES: N[C@@H](CCC(=O)O)C(=O)O [L-glutamate, L-Glutamic acid]
Real time calcium imaging response (AmGr10 [3]): clearly showed calcium responses
Real time calcium imaging response with IMP (AmGr10 [3]): clearly showed enhanced response
Response of HEK 293 cells expressing AmGr10 (in words) (AmGr10 [4]): highest responses
Response of oocytes injected with AmGr10 cRNA (in words) (AmGr10 [5]): responsive
Threshold concentration on Xenopus oocytes expressed AmGr10 (AmGr10 [5]): ~ 10 mM
Responses during 1 sec of stimulation ([2]; 100 mM): 27 spikes
Responses during 1 sec of stimulation ([2]; 200 mM): 55 spikes
Responses during 1 sec of stimulation ([2]; concentration of 50 mM): 15 spikes
Threshold concentration necessary for tip recording [2]: ~ 50 mM
Response of sensilla chaetica on the galea (in words) [2]: responded

SMILES: O=C(CO)[C@@H](O)[C@H](O)[C@H](O)CO [fructose]
Response of AmGr3 (AmGr3): responds only
Response of AmGr1 (AmGr1): not

SMILES: N[C@@H](CO)C(=O)O [L-serine, L-Serine]
Response of hT1R1/hT1R3 (hT1R1/hT1R3): slight but significant responses

SMILES: NC(CCP(=O)(O)O)C(=O)O [L-AP4]
AmGr10 response in presence of purine nucleotides (AmGr10 [3]; amino acids 50 mM, IMP 2 mM): greatly enhanced

SMILES: OC[C@H]1OC(O)[C@H](O)[C@@H](O)[C@@H]1O (stereo partly drawn) [glucose]
Response of AmGr1 (AmGr1): responded

SMILES: N=C(N)NCCC[C@H](N)C(=O)O [L-arginine, L-Arginine]
Response of hT1R1/hT1R3 (hT1R1/hT1R3): slight but significant responses
Response of HEK 293 cells expressing AmGr10 (in words) (AmGr10 [4]): significant responses
Response of oocytes injected with AmGr10 cRNA (in words) (AmGr10 [5]): responsive
Umami taste in human sensory tests (human): weak umami taste

SMILES: NCCCC[C@H](N)C(=O)O [L-lysine, L-Lysine]
Response of HEK 293 cells expressing AmGr10 (in words) (AmGr10 [4]): significant responses
Response of oocytes injected with AmGr10 cRNA (in words) (AmGr10 [5]): responsive

Real time calcium imaging response (AmGr10 [3]): clearly showed calcium responses
Real time calcium imaging response with IMP (AmGr10 [3]): clearly showed enhanced response
Response of HEK 293 cells expressing AmGr10 (in words) (AmGr10 [4]): highest responses
Response of oocytes injected with AmGr10 cRNA (in words) (AmGr10 [5]): responsive
Threshold concentration on Xenopus oocytes expressed AmGr10 (AmGr10 [5]): ~ 10 mM
SMILES: N[C@@H](CC(=O)O)C(=O)O [L-aspartate, L-Aspartic acid]
Responses during 1 sec of stimulation ([2]; 100 mM): 22 spikes
Responses during 1 sec of stimulation ([2]; 200 mM): 51 spikes
Responses during 1 sec of stimulation ([2]; concentration of 50 mM): 6 spikes
Threshold concentration necessary for tip recording [2]: ~ 50 mM
Response of sensilla chaetica on the galea (in words) [2]: responded

Response of HEK 293 cells expressing AmGr10 (in words) (AmGr10 [4]): significant responses
Response of oocytes injected with AmGr10 cRNA (in words) (AmGr10 [5]): responsive
SMILES: NC(=O)CC[C@H](N)C(=O)O [L-glutamine, L-Glutamine]
Response of hT1R1/hT1R3 (hT1R1/hT1R3): slight but significant responses
Umami taste in human sensory tests (human): weak umami taste

SMILES: N[C@@H](Cc1c[nH]cn1)C(=O)O [L-histidine, L-Histidine]
Response of hT1R1/hT1R3 (hT1R1/hT1R3): slight but significant responses

SMILES: N[C@@H](CCC(=O)O)C(=O)[O-].[Na+] [MSG, L-Glutamic acid monosodium salt]
Sensitivity of HEK 293 cells expressing hT1R1/hT1R3 (hT1R1/hT1R3; unlike non-transfected HEK 293 cells): significantly sensitive
Response to MSG of AmGr10-transfected HEK 293 cells vs non-transfected (AmGr10 [4]; concentration steps, Fig. S5): significantly increased

SMILES: C[C@H](N)C(=O)O [L-Ala]
Response of hT1R1/hT1R3 (hT1R1/hT1R3): slight but significant responses

Response of HEK 293 cells expressing AmGr10 (in words) (AmGr10 [4]): significant responses
Response of oocytes injected with AmGr10 cRNA (in words) (AmGr10 [5]): responsive
SMILES: NC(=O)C[C@H](N)C(=O)O [L-asparagine, L-Asparagine]
Response of hT1R1/hT1R3 (hT1R1/hT1R3): slight but significant responses
Umami taste in human sensory tests (human): weak umami taste

SMILES: OC[C@H]1O[C@H](O[C@H]2[C@H](O)[C@@H](O)C(O)O[C@@H]2CO)[C@H](O)[C@@H](O)[C@@H]1O (mixture of isomers) [maltose]
Response of AmGr1 (AmGr1): responded

SMILES: Cn1c(=O)c2c(ncn2C)n(C)c1=O [caffeine]
Response of oocytes injected with AmGr10 cRNA (in words) (AmGr10 [5]): not

SMILES: OC[C@H]1O[C@@](CO)(O[C@H]2O[C@H](CO)[C@@H](O)[C@H](O)[C@H]2O)[C@@H](O)[C@@H]1O [sucrose, Sucrose]
Response of AmGr1 (AmGr1): responded
Response of sensilla chaetica on the galea (in words) [2]: sensitive
